A short description of data set [1]: stability of 4-maleimidobutyraldehyde on work-up. The data set is classed as physicochemical. To be noted: work-up needed low temperatures (0° C.) and complete exclusion of oxygen. On the procedure:
4-Maleimidobutyraldehyde diethylacetal (2 g, 8.29 mmol) in tetrahydrofuran (20 ml) and water (0.5 ml) was stirred under argon and DOWEX 50X8 ion exchange resin (H^+, 2 g, ® Dow Chemical Co.) was added. After 12 hours stirring at room temperature, the solvent was decanted, dried (MgSO4) and evaporated in vacuo to afford 4-maleimidobutyraldehyde (formula III) as a yellow oil which rapidly solidified on standing (1.38 g, 99%); TLC Rf=0.4, ethyl acetate/hexane 1:1.

The next data set relates to ICE protease. Conditions: See Nature 375:78-81 (1995); cited from earlier work.

These results are taken from patent publication US5976783A, “Bis-maleimido cross-linking agents” (Boehringer Mannheim Corporation, priority 1997, dated 1999).

`O=CCCCN1C(=O)C=CC1=O` [4-maleimidobutyraldehyde]: in data set [1], the stability entry is “extremely unstable”. As to `CC(=O)N[C@@H](Cc1ccc(O)cc1)C(=O)N[C@H](C(=O)N[C@@H](C)C(=O)N[C@@H](CC(=O)O)C(=O)CCl)C(C)C` [Ac-Tyr-Val-Ala-Asp-*], the “inhibition of ICE protease” value in the data set on ICE protease is given as “potent inhibitor”.
